According to patent US5663148A, “Anaphylatoxin receptor ligands containing lipophilic residues” (Abbott Laboratories, priority 1994, dated 1997):
*1 amine or outer side, *2 acyl side, *3 side chain or, on linkers, in order; H or OH if unused. Where a SMILES comes first, the peptide text is derived from it. [ ]: non-standard residue; d: D form. The star is where a group is joined. X11 = O=C([C@H](CC1CCCCC1)N(CCCc1ccccc1)[*:1])[*:2]; X13 = O=C([C@H](CC1CCCCC1)N(CCc1ccccc1)[*:1])[*:2]; d(hhPhe) = N[C@H](CCCc1ccccc1)C(=O)O; X4 = O=C(C=Cc1ccccc1[N+](=O)[O-])*; Hydrocinnamoyl = O=C(CCc1ccccc1)*; hPhe = N[C@@H](CCc1ccccc1)C(=O)O; Cha = N[C@@H](CC1CCCCC1)C(=O)O; X6 = O=C(c1cc2ccccc2[nH]1)*; X1 = O=C(CC1CNc2ccccc21)*; Bn = c1ccc(C*)cc1

Target: T1, C5a receptor (Homo sapiens, UniProt P21730)
T1 construct: from tissue; host or cells: polymorphonuclear leukocyte (PMNL) membrane fragments
T1 sequence (P21730 1-350): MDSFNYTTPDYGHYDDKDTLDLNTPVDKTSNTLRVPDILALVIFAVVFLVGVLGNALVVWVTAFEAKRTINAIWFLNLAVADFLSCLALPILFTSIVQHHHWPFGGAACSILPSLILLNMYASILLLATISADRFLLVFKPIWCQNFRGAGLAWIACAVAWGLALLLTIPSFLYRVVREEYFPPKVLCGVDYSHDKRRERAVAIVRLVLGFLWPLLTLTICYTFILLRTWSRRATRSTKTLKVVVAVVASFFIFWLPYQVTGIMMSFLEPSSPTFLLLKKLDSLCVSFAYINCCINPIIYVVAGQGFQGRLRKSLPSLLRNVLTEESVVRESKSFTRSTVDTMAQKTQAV
Assay: Anaphylatoxin (C5a) receptor binding Ki determination, 125I-C5a on PMNL membrane fragments
Details: read-out: Ki (In vitro C5a Receptor Binding Potency)
Protocol: The membrane-bound radiolabeled C5a was separated from the free radiolabeled C5a by filtration, and the recovered gamma radioactivity was measured. […] Free and membrane-bound ligand were separated by filtration.

Row | SMILES | Ki
1 | CC(C)C[C@@H](NC(=O)CNC(=O)[C@H](CC1CCCCC1)NC(=O)CCCCCN)C(=O)NC(CCCc1ccccc1)C(=O)N[C@@H](CCCNC(=N)N)C(=O)O (single isomer, unassigned) [Example 100] | 60 µM
2 | CC(C)C[C@H](NC(=O)CNC(=O)[C@H](CC1CCCCC1)NC(=O)CN)C(=O)NC(CCCc1ccccc1)C(=O)N[C@@H](CCCNC(=N)N)C(=O)O (single isomer, unassigned) [Example 73] | 1.99 µM
3 | CC(C)C[C@H](NC(=O)CNC(=O)[C@@H](N)CCc1ccccc1)C(=O)N[C@H](CCCc1ccccc1)C(=O)N[C@@H](CCCNC(=N)N)C(=O)O [Example 117, H-{(S)-2-Amino-4-phenylbutyryl}-Glycyl-Leucyl-{(R)-2-Amino-5-phenylpentanoyl}-Arginyl-OH] (H-[hPhe]GL[d(hhPhe)]R-OH) | 0.37 µM
4 | CC(C)C[C@H](NC(=O)CNC(=O)[C@H](CC1CCCCC1)NCCc1ccccc1)C(=O)N[C@H](CCCc1ccccc1)C(=O)N[C@@H](CCCNC(=N)N)C(=O)O [Example 78, N-(2-Phenethyl)-{(2S)-2-Amino-3-cyclohexylpropanoyl}-Glycyl-Leucyl-{(R)-2-Amino-5-phenylpentanoyl}-Arginyl-OH] (H-[X13]GL[d(hhPhe)]R-OH) | 0.07 µM
5 | CC(C)C[C@H](NC(=O)[C@H](CC1CCCCC1)NC(=O)CCCCCN)C(=O)NC(CCCc1ccccc1)C(=O)N[C@@H](CCCNC(=N)N)C(=O)O (single isomer, unassigned) [Example 87] | 5.8 µM
6 | CC(C)C[C@H](NC(=O)CNC(=O)[C@H](CC1CCCCC1)NC(=O)CCCCN)C(=O)NC(CCCc1ccccc1)C(=O)N[C@@H](CCCNC(=N)N)C(=O)O (single isomer, unassigned) [Example 139] | 1.1 µM
7 | CC(C)C[C@H](NC(=O)[C@H](C)NC(=O)[C@H](CC1CCCCC1)NC(=O)CCCCCN)C(=O)NC(CCCc1ccccc1)C(=O)N[C@@H](CCCNC(=N)N)C(=O)O (single isomer, unassigned) [Example 135] | 1.3 µM
8 | CC(C)[C@H](NC(=O)CNC(=O)[C@H](CC1CCCCC1)NC(=O)CCCCCN)C(=O)NC(CCCc1ccccc1)C(=O)N[C@@H](CCCNC(=N)N)C(=O)O (single isomer, unassigned) [Example 102, N-(6-Aminohexanoyl)-{(2S)-2-Amino-3-cyclohexylpropanoyl}-Glycyl-Valyl-{(FFS)-2-Amino-5-phenylpentanoyl}-Arginyl-OH] | 21.7 µM
9 | CC(C)C[C@H](NC(=O)CNC(=O)CC1CNc2ccccc21)C(=O)N[C@H](CCCc1ccccc1)C(=O)N[C@@H](CCCNC(=N)N)C(=O)O (stereo partly drawn) [Example 80, N-[(Indoline-3-yl)acetyl]-Glycyl-Leucyl-{(R)-2-Amino-5-phenylpentanoyl}-Arginyl-OH] (X1-GL[d(hhPhe)]R-OH) | 0.87 µM
10 | CC(C)C[C@H](NC(=O)CCNC(=O)[C@H](CC1CCCCC1)NC(=O)CCCCCN)C(=O)NC(CCCc1ccccc1)C(=O)N[C@@H](CCCNC(=N)N)C(=O)O (single isomer, unassigned) [Example 115] | 5.6 µM
11 | CC(C)C[C@H](NC(=O)CNC(=O)[C@H](CCC1CCCCC1)NC(=O)CCCCCN)C(=O)NC(CCCc1ccccc1)C(=O)N[C@@H](CCCNC(=N)N)C(=O)O (single isomer, unassigned) [Example 138] | 0.33 µM
12 | CC(C)C[C@H](NC(=O)CNC(=O)[C@@H](CC1CCCCC1)NC(=O)CCCCCN)C(=O)NC(CCCc1ccccc1)C(=O)N[C@@H](CCCNC(=N)N)C(=O)O (single isomer, unassigned) [Example 35] | 1.27 µM
13 | CC(C)C[C@H](NC(=O)[C@@H](CCCCN)NC(=O)[C@@H](N)CC1CCCCC1)C(=O)NC(CCCc1ccccc1)C(=O)N[C@@H](CCCNC(=N)N)C(=O)O (mixture of isomers) [Example 98, H-{(2S)-2-Amino-3-cyclohexylpropanoyl}-DLysyl-Leucyl-{(R/S)-2-Amino-5-phenylpentanoyl}-Arginyl-OH] | 44.7 µM
14 | CC(C)C[C@H](NC(=O)CNC(=O)[C@H](CC1CCCCC1)NCCCc1ccccc1)C(=O)N[C@H](CCCc1ccccc1)C(=O)N[C@@H](CCCNC(=N)N)C(=O)O [Example 77, N-(3-Phenylpropyl)-{(2S)-2-Amino-3-cyclohexylpropanoyl}-Glycyl-Leucyl-{(R)-2-Amino-5-phenylpentanoyl}-Arginyl-OH] (H-[X11]GL[d(hhPhe)]R-OH) | 0.05 µM
15 | CC(C)C[C@H](NC(=O)CNC(=O)[C@@H](N)CSCc1ccccc1)C(=O)N[C@H](CCCc1ccccc1)C(=O)N[C@@H](CCCNC(=N)N)C(=O)O [Example 90, H-Cysteinyl(S-benzyl)-Glycyl-Leucyl-{(R)-2-Amino-5-phenylpentanoyl}-Arginyl-OH] (H-C(Bn)GL[d(hhPhe)]R-OH) | 0.18 µM
16 | CC(C)C[C@H](NC(=O)CNC(=O)[C@H](Cc1ccccc1)NC(=O)CCCCCN)C(=O)NC(CCCc1ccccc1)C(=O)N[C@@H](CCCNC(=N)N)C(=O)O (single isomer, unassigned) [Example 124, N-(6-Aminohexanoyl)-Phenylalanyl-Glycyl-Leucyl{(R/S)-2-Amino-5-phenylpentanoyl}-Arginyl-OH] | 34 µM
17 | CC(C)C[C@H](NC(=O)CNC(=O)c1cc2ccccc2[nH]1)C(=O)N[C@H](CCCc1ccccc1)C(=O)N[C@@H](CCCNC(=N)N)C(=O)O [Example 131, N-[(Indol-2-yl)-carbonyl]-Glycyl-Leucyl-{(R)-2-Amino-5-phenylpentanoyl}-Arginyl-OH] (X6-GL[d(hhPhe)]R-OH) | 0.56 µM
18 | N=C(N)NCCC[C@H](NC(=O)C(CCCc1ccccc1)NC(=O)[C@@H](Cc1ccccc1)NC(=O)CNC(=O)[C@H](CC1CCCCC1)NC(=O)CCCCCN)C(=O)O (mixture of isomers) [Example 58, N-(6-Aminohexanoyl)-{(2S)-2-Amino-3-cyclohexylpropanoyl}-Glycyl-DPhenylalanyl-{(R/S)-2-Amino-5-phenylpentanoyl}-Arginyl-OH] | 6.5 µM
19 | CC(C)C[C@H](NC(=O)CNC(=O)C(N)CCCc1ccccc1)C(=O)N[C@H](CCCc1ccccc1)C(=O)N[C@@H](CCCNC(=N)N)C(=O)O (single isomer, unassigned) [Example 105] | 0.33 µM
20 | CC(C)C[C@H](NC(=O)CNC(=O)C=Cc1ccccc1[N+](=O)[O-])C(=O)N[C@H](CCCc1ccccc1)C(=O)N[C@@H](CCCNC(=N)N)C(=O)O [Example 107, N-(2-Nitrocinnamoyl)-Glycyl-Leucyl-{(R)-2-Amino-5-phenylpentanoyl}-Arginyl-OH] (X4-GL[d(hhPhe)]R-OH) | 0.087 µM
21 | CC(C)C[C@H](NC(=O)CNC(=O)[C@H](CC1CCCCC1)N(C)C(=O)CCCCN)C(=O)NC(CCCc1ccccc1)C(=O)N[C@@H](CCCNC(=N)N)C(=O)O (single isomer, unassigned) [Example 36] | 9.7 µM
22 | CC(C)C[C@H](NC(=O)CNC(=O)[C@H](CC1CCCCC1)NC(=O)[C@@H](N)CCCCN)C(=O)NC(CCCc1ccccc1)C(=O)N[C@@H](CCCNC(=N)N)C(=O)O (single isomer, unassigned) [Example 41, H-Lysyl-{(2S)-2-Amino-3-cyclohexylpropanoyl}-Glycyl-Leucyl-{(R/S)-2-Amino-5-phenylpentanoyl}-Arginyl-OH] | 25.4 µM
23 | C[C@H](NC(=O)CNC(=O)[C@@H](N)CC1CCCCC1)C(=O)NC(CCCc1ccccc1)C(=O)N[C@@H](CCCNC(=N)N)C(=O)O (mixture of isomers) [Example 59, H-{(2S)-2-Amino-3-cyclohexylpropanoyl}-Glycyl-Alanyl-{(±)-2-Amino-5-phenylpentanoyl}-Arginyl-OH] | 67 µM
24 | CC(C)C[C@H](NC(=O)CNC(=O)[C@@H](N)Cc1ccccc1)C(=O)N[C@H](CCCc1ccccc1)C(=O)N[C@@H](CCCNC(=N)N)C(=O)O [Example 116, H-Phenylalanyl-Glycyl-Leucyl-{(R)-2-Amino-5-phenylpentanoyl}-Arginyl-OH] (H-FGL[d(hhPhe)]R-OH) | 0.63 µM
25 | CC(C)C[C@H](NC(=O)[C@H](C)NC(=O)[C@H](CC1CCCCC1)NC(=O)[C@@H]1CCCN1C(=O)[C@H](CCCCN)NC(=O)[C@@H](N)Cc1ccccc1)C(=O)N[C@H](CCCc1ccccc1)C(=O)N[C@@H](CCCNC(=N)N)C(=O)O [Example 2, H-Phenylalanyl-Lysyl-Prolyl-{(2S)-2-Amino-3-cyclohexylpropanoyl}-Alanyl-Leucyl-{(R)-2-Amino-5-phenylpentanoyl}-Arginyl-OH] (H-FKP[Cha]AL[d(hhPhe)]R-OH) | 0.0048 µM
26 | CC(C)C[C@H](NC(=O)[C@H](C)NC(=O)[C@H](CC1CCCCC1)NC(=O)[C@@H]1CCCN1C(=O)[C@H](CCCCN)NC(=O)CN)C(=O)N[C@@H](CSCc1ccccc1)C(=O)N[C@@H](CCCNC(=N)N)C(=O)O [Example 108, H-Glycyl-Lysyl-Prolyl-{(2S)-2-Amino-3-cyclohexylpropanoyl}-Alanyl-Leucyl-Cysteinyl(S-benzyl)-Arginyl-OH] (H-GKP[Cha]ALC(Bn)R-OH) | 4.8 µM
27 | CC(C)C[C@H](NC(=O)CNC(=O)[C@H](CC1CCCCC1)N(C)C(=O)CCCCCCN)C(=O)NC(CCCc1ccccc1)C(=O)N[C@@H](CCCNC(=N)N)C(=O)O (single isomer, unassigned) [Example 75] | 17.2 µM
28 | CC(C)C[C@H](NC(=O)CNC(=O)CCc1ccccc1)C(=O)N[C@H](CCCc1ccccc1)C(=O)N[C@@H](CCCNC(=N)N)C(=O)O [Example 92, N-(3-Phenylpropanoyl)-Glycyl-Leucyl-{(R)-2-Amino-5-phenylpentanoyl}-Arginyl-OH] (Hydrocinnamoyl-GL[d(hhPhe)]R-OH) | 0.75 µM
